# Experimental data as given in patent US12697326B2, “Methods of treating hepatic encephalopathy” (SALIX PHARMACEUTICALS, INC., priority 2008, dated 2026).
# How the values were obtained:
# in vitro = conditions: human, in vivo
# [1] = test system: asterixis grade in subjects with HE; assay: Time to any increase from baseline in asterixis grade, first study; type: in vivo, human; conditions: for Probability of no increase in asterixis grade: Kaplan-Meier estimate, ITT; for Probability of no increase in asterixis grade / Cummulative number of events (increase in asterixis grade) / Number of events (increase in asterixis grade): Rifaximin N = 140; for Cummulative number of events (increase in asterixis grade) / Number of events (increase in asterixis grade): ITT population
# Experimental: Asterixis (flapping tremor) was determined with the subject holding both arms and forearms extended with wrists dorsiflexed and fingers open for ≥30 seconds. Asterixis was measured on a continuum of 5 grades, e.g., grades 0 and 4=no abnormal movement vs. almost continuous flapping motions, respectively as shown below: • Grade 0=No tremors; • Grade 1=Rare flapping motions; • Grade 2=Occasional, irregular flaps; • Grade 3=Frequent flaps; and • Grade 4=Almost continuous flapping motions.
# Efficacy in regard to asterixis grade was measured as time to any increase from baseline in asterixis grade.
# FIG. 12 illustrates time to any increase from baseline in asterixis grade by treatment group in the ITT population in the first study. Table 21 presents estimates of the proportions of subjects who had any increase in asterixis grade over the course of the Treatment Period and results of statistical analyses. Subjects who discontinued prior to experiencing an increase in asterixis grade and prior to completion of the 6-month treatment period were censored at the time of discontinuation.
# [2] = test system: Conn score and asterixis grade in subjects with HE; assay: Changes from baseline in Conn scores and asterixis grades, second study; type: in vivo, human
# From the text: Normalizing for subject exposure, this represents a hospitalization rate of 0.60 event/PEY. A total of 59 were hospitalized due HE episodes (e.g., HE-caused). Normalizing for subject exposure, this represents an HE-caused hospitalization rate of 0.29 event/PEY. […] All subjects were capable of worsening over time, and 24/266 subjects (9.0%) did so by 1 or 2 grades.
# The last visit for the second study is the last visit recorded for the interim analysis.
# subjects with HE = assay: Treatment-emergent adverse events, first study; type: in vivo, human; conditions: rifaximin group
# From the text: A total of 79.9% of subjects (239 of 299) experienced TEAEs during the course of the study.
# [3] = human, in vivo
# [4] = Treatment interval 0 to <28 days
# [5] = Treatment interval 28 to <56 days
# [6] = Treatment interval 56 to <84 days
# [7] = Treatment interval 84 to <140 days
# [8] = Treatment interval 140 to <168 days
# [9] = any increase from baseline in asterixis grade, 550 mg BID, N = 140, Days >=168
# [10] = any increase from baseline in asterixis grade; 550 mg BID; N = 140; Days [0-28)
# [11] = any increase from baseline in asterixis grade; 550 mg BID; N = 140; Days [28-56)
# [12] = any increase from baseline in asterixis grade; 550 mg BID; N = 140; Days [56-84)
# [13] = any increase from baseline in asterixis grade; 550 mg BID; N = 140; Days [84-140)
# [14] = any increase from baseline in asterixis grade; 550 mg BID; N = 140; Days [140-168)
structure (smiles),measurement,setting,value
CO[C@H]1/C=C/O[C@@]2(C)Oc3c(C)c(O)c4c(O)c(c5c(nc6cc(C)ccn65)c4c3C2=O)NC(=O)/C(C)=C\C=C\[C@H](C)[C@H](O)[C@@H](C)[C@@H](O)[C@@H](C)[C@H](OC(C)=O)[C@@H]1C [Rifaximin],fraction unbound,in vitro,0.447
same,Probability of no increase in asterixis grade,[1]; [4],1.0000
same,Cummulative number of events (increase in asterixis grade),[1]; [4],13
same,Probability of no increase in asterixis grade,[1]; [5],0.9048
same,Cummulative number of events (increase in asterixis grade),[1]; [5],20
same,Number of events (increase in asterixis grade),[1]; [5],7
same,Probability of no increase in asterixis grade,[1]; [6],0.8499
same,Cummulative number of events (increase in asterixis grade),[1]; [6],27
same,Number of events (increase in asterixis grade),[1]; [6],7
same,Probability of no increase in asterixis grade,[1]; [7],0.7910
same,Cummulative number of events (increase in asterixis grade),[1]; [7],30
same,Number of events (increase in asterixis grade),[1]; [7],3
same,Probability of no increase in asterixis grade,[1]; [8],0.7637
same,Cummulative number of events (increase in asterixis grade),[1]; [8],31
same,Number of events (increase in asterixis grade),[1]; [8],1
same,Probability of no increase in asterixis grade,[1]; Treatment interval ≥168 days,0.7534
same,Cummulative number of events (increase in asterixis grade),[1]; Treatment interval ≥168 days,32
same,Number of events (increase in asterixis grade),[1]; Treatment interval ≥168 days,1
same,Cumulative Occurrences of Events,[1]; [9],32
same,Occurrences of Events,[1]; [9],1
same,Cumulative Occurrences of Events,[1]; [10],13
same,Occurrences of Events,[1]; [10],13
same,Cumulative Occurrences of Events,[1]; [11],20
same,Occurrences of Events,[1]; [11],7
same,Cumulative Occurrences of Events,[1]; [12],27
same,Occurrences of Events,[1]; [12],7
same,Cumulative Occurrences of Events,[1]; [13],30
same,Occurrences of Events,[1]; [13],3
same,Cumulative Occurrences of Events,[1]; [14],31
same,Occurrences of Events,[1]; [14],1
same,subjects with increases in asterixis grade (of 140),"[1]; first study, rifaximin group",32
same,"time to first increase in Asterixis grade vs placebo (FIG. 5, Kaplan Meier)",[1]; in vivo,increased time to the first increase in Asterixis grade
same,subjects with worsening of Conn score by 1 or 2 grades,[2]; 24/266 subjects,9.0%
same,incidence of worsening asterixis grades,"[2]; continuing rifaximin group, 6/70 subjects",8.6%
same,"subjects with 2-grade improvement in asterixis among those entering with scores of 1, 2 or 3","[2]; last visit, 4 subjects of 67",6.0%
same,"subjects with 3-grade improvement in asterixis among those entering with scores of 1, 2 or 3","[2]; last visit, 5 subjects of 67",7.5%
same,"subjects with 2-grade improvement in Conn score among those entering with Conn 1, 2, or 3","[2]; last visit, 7 subjects of 84",8.3%
same,"subjects with 1-grade improvement in Conn score among those entering with Conn 1, 2, or 3","[2]; last visit, 47 subjects of 84",56.0%
same,incidence of worsening asterixis grades,"[2]; new rifaximin group, 12/196 subjects",6.1%
same,"TEAE ascites, subjects",subjects with HE,11.4%
same,"TEAE diarrhea, subjects",subjects with HE,10.7%
same,"TEAE dizziness, subjects",subjects with HE,12.9%
same,"TEAE fatigue, subjects",subjects with HE,12.1%
same,"TEAE headache, subjects",subjects with HE,10%
same,"TEAE nausea, subjects",subjects with HE,14.3%
same,"TEAE peripheral edema, subjects",subjects with HE,15%
same,highest anticipated free plasma exposure,[3],0.03 µM
